Assay results published in patent US4629793A, “2,3-di-substituted-5,6-dihydroimidazo [2,1-b] thiazole, its salts, production thereof and anti-inflammatory agent containing the same” (Toyo Jozo Kabushiki Kaisha, priority 1981, dated 1986).

System: not listed separately
Assay: Analgesic action, acetic acid stretching method, oral
Type: in vivo
Conditions: administered orally in mice

Question: For CC1=C(C(=O)Nc2ccc(Cl)c(Cl)c2)SC2=NCCN21.Cl [Compound 15, 2-(3,4-dichlorophenylcarbamoyl)-3-methyl-5,6-dihydroimidazo [2,1-b] thiazole hydrochloride], which “analgesic action, at a dose of” value is on record?
Answer: 25 mg/kg

System: bovine serum albumin
Assay: not given
Conditions: known agents, stated "in general"; cited from earlier work

Question: With c1ccc([C@H]2CN3CCSC3=N2)cc1 [levamisol] as the compound, how does the “effect on heat denaturation of bovine serum albumin” value (“effect on heat denaturation” below) read?
Answer: do not inhibit the heat denaturation of bovine serum albumin but rather stimulate the protein heat denaturation

Question: With Cn1cnc([N+](=O)[O-])c1Sc1ncnc2nc[nH]c12 [azathioprine] as the compound, how does the “effect on heat denaturation” value read?
Answer: do not inhibit the heat denaturation of bovine serum albumin but rather stimulate the protein heat denaturation

Question: For gold sodium thiomalate, which “effect on heat denaturation” value is on record?
Answer: do not inhibit the heat denaturation of bovine serum albumin but rather stimulate the protein heat denaturation

Question: Which “effect on heat denaturation” value does the source give for CC(C)(S)[C@@H](N)C(=O)O [D-penicillamine] here?
Answer: do not inhibit the heat denaturation of bovine serum albumin but rather stimulate the protein heat denaturation

System: not listed separately
Assay: Adjuvant arthritis (chronic inflammation), oral
Type: in vivo
Conditions: administered orally, rats

Question: For CC1=C(C(=O)Nc2ccc(Cl)c(Cl)c2)SC2=NCCN21.Cl [Compound 15, 2-(3,4-dichlorophenylcarbamoyl)-3-methyl-5,6-dihydroimidazo [2,1-b] thiazole hydrochloride], which “inhibited adjuvant arthritis, at a dose of” value is on record?
Answer: 1 to 10 mg/kg

System: not listed separately
Assay: Anti-carrageenin edema action (oral, hind foot edema)
Type: in vivo, Wister rats
Conditions: Rattus norvegicus, po, 3 h, minimum dose with significant inhibition of edema 3 hours after carrageenin injection; p.o. one hour before carrageenin
Procedure: Fasting Wister rats, male, 5-6 weeks in age, five in one group, were injected subcutaneously in the sole of the caudal foot with 1% lambda carrageenin (0.05 ml), and the increase in the volume of the foot was measured at alliquot times. Then the compound of the invention was suspended in 0.3% CMC and administered orally one hour before carrageenin injection. 0.3% CMC alone was administered as a control.

Question: For CCc1ccccc1NC(=O)C1=C(C)N2CCN=C2S1 [Compound 11], which minimal effective dose is on record?
Answer: 50 mg/kg

Question: With CC1=C(C(=O)Nc2c(Cl)cc(Cl)cc2Cl)SC2=NCCN21 [Compound 19] as the compound, how does the minimal effective dose read?
Answer: 100 mg/kg

Question: For CC1=C(C(=O)Nc2ccccc2Cl)SC2=NCCN21.Cl [Compound 4, 2-(2-chlorophenylcarbamoyl)-3-methyl-5,6-dihydroimidazo [2,1-b] thiazole hydrochloride], which minimal effective dose is on record?
Answer: < 25 mg/kg

Question: With CC1=C(C(=O)Nc2ccc(Cl)cc2C)SC2=NCCN21 [Compound 13] as the compound, how does the minimal effective dose read?
Answer: 50 mg/kg

Question: Which minimal effective dose does the source give for CC1=C(C(=O)Nc2ccc(Cl)c(Cl)c2)SC2=NCCN21.Cl [Compound 15, 2-(3,4-dichlorophenylcarbamoyl)-3-methyl-5,6-dihydroimidazo [2,1-b] thiazole hydrochloride] here?
Answer: < 25 mg/kg

Question: Which minimal effective dose does the source give for CC1=C(C(=O)Nc2ccc(Cl)cc2Cl)SC2=NCCN21 [Compound 32] here?
Answer: 50 mg/kg

Question: Which minimal effective dose does the source give for COc1cc(OC)c(NC(=O)C2=C(C)N3CCN=C3S2)cc1Cl [Compound 21] here?
Answer: 100 mg/kg

Question: With CC1=C(C(=O)Nc2cc(Cl)ccc2Cl)SC2=NCCN21 [Compound 7, 2-(2,5-dichlorophenylcarbamoyl)-3-methyl-5,6-dihydroimidazo [2,1-b] thiazole] as the compound, how does the minimal effective dose read?
Answer: 100 mg/kg

Question: Which minimal effective dose does the source give for CC1=C(C(=O)Nc2ccc(C)cc2Cl)SC2=NCCN21 [Compound 10] here?
Answer: 50 mg/kg

Question: With CC1=C(C(=O)Nc2ccccc2)SC2=NCCN21.Cl [Compound 2, 2-phenylcarbamoyl-3-methyl-5,6-dihydro-imidazo [2,1-b] thiazole hydrochloride] as the compound, how does the minimal effective dose read?
Answer: 50 mg/kg

Question: With CCOc1ccc(NC(=O)C2=C(C)N3CCN=C3S2)cc1 [Compound 14] as the compound, how does the minimal effective dose read?
Answer: 50 mg/kg

Question: With CC1=C(C(=O)Nc2ccccc2)SC2=NCCN21 [Compound 1, 2-phenylcarbamoyl-3-methyl-5,6-dihydro-imidazo [2,1-b] thiazole] as the compound, how does the minimal effective dose read?
Answer: 100 mg/kg

Question: Which minimal effective dose does the source give for COc1ccc(Cl)cc1NC(=O)C1=C(C)N2CCN=C2S1 [Compound 22] here?
Answer: 100 mg/kg

Question: With CC1=C(C(=O)Nc2ccc(Cl)cc2)SC2=NCCN21 [Compound 5] as the compound, how does the minimal effective dose read?
Answer: 50 mg/kg

Question: For CC1=C(C(=O)Nc2ccc(Cl)c(Cl)c2)SC2=NCCN21 [Compound 30], which minimal effective dose is on record?
Answer: < 25 mg/kg

Question: With CC1=C(C(=O)Nc2ccc(Br)cc2)SC2=NCCN21 [Compound 16] as the compound, how does the minimal effective dose read?
Answer: 50 mg/kg

Same assay, conditions: minimum dose with significant inhibition of edema 3 hours after carrageenin injection; p.o. one hour before carrageenin

Question: With CC1=C(C(=O)Nc2ccc(Cl)cc2)SC2=NCCN21 [Compound 6] as the compound, how does the Minimum effective dose read?
Answer: < 25 mg/kg, p.o.

System: not listed separately
Assay: Acute toxicity, oral
Conditions: mouse, in vivo, mice, p.o.

Question: Which LD50 does the source give for CC1=C(C(=O)Nc2ccc(Cl)c(Cl)c2)SC2=NCCN21.Cl [Compound 15, 2-(3,4-dichlorophenylcarbamoyl)-3-methyl-5,6-dihydroimidazo [2,1-b] thiazole hydrochloride] here?
Answer: > 4000 mg/kg
